Measurements taken from patent US20250197398A1, “Varenicline Related Compounds and Methods for Treating Diseases and Conditions Including Tobacco Use Disorder” (SpaceRX LLC, priority 2022, published 2025).

Experiments:
Format in all cases: in vivo
[1] = system: nicotine-induced dopamine signaling in the striatum; assay: Nicotine-evoked striatal dopamine release after compound pretreatment (GRAB-DA sensor, fiber photometry); details: awake mice pretreated with compound; IP nicotine 2 hours later; mean dopamine response for 30 minutes following nicotine; varenicline 1.5 and 4.5 mpk; FIG. 2A-2C
Text: (§1) FIG. 1A-FIG. 1B are a schematic and a response curve illustrating the monitoring of striatal dopamine in the awake behaving animal in response to varenicline. […] Scale bar, 200 μm.
FIG. 2A-FIG. 2C are bar graphs and a response curve illustrating the striatal dopamine responses to nicotine. […] FIGS. 2B-2C show exemplary traces and quantification of striatal dopamine responses preceding and following an IP administration of nicotine. Mice were pretreated either with Varenicline (light grey) or Varenicline-Encarbil (dark grey).
(§2) The ability of varenicline to decrease nicotine use comes from the ability to block nicotine-induced dopamine signaling in the striatum. Real-time sensing of dopamine levels in awake and behaving mice was measured using a fluorescent dopamine sensor (GRAB-DA) and fluorometric measurements of that sensor (Fiber Photometry).

[2] = system: striatal dopamine levels; assay: Striatal dopamine response to oral compound administration (GRAB-DA sensor, fiber photometry); details: awake mice; mean for 30 minutes following compound administration; varenicline 1.5 and 4.5 mpk; FIG. 3A-3B
Text: as §1
FIG. 3A-FIG. 3B are a bar graph and a response curve illustrating the striatal dopamine responses to oral compound administration.
as §2

[3] = system: anxiety-like behavior in mice; assay: Open field assay after oral compound administration; details: varenicline 1.5 and 4.5 mpk, FIG. 5
Text: FIG. 5 is a bar graph illustrating open field responses to oral administration of compounds.
Varenicline also influenced the mobility and anxiety-like behavior in mice.

Structure (SMILES) | efficacy at reducing the nicotine-evoked release of dopamine [1] | striatal dopamine response following oral administration of compound [2] | anxiety-like behavior: time spent in center of open field [3]
O=C(N[C@@H](CO)C(=O)O)c1ccc[n+](COC(=O)N2CC3CC(C2)c2cc4nccnc4cc23)c1 [Servarenicline Chloride] | better efficacy when compared directly to varenicline | do not lead to dopamine release | not observed
N[C@@H](Cc1ccc(OC(=O)N2CC3CC(C2)c2cc4nccnc4cc23)cc1)C(=O)O [Varenicline-CBT] |  | do not lead to dopamine release | not observed
c1cnc2cc3c(cc2n1)[C@@H]1CNC[C@H]3C1 [varenicline] | regardless the dose of varenicline, the response to nicotine 2 hours later is the same | increased striatal dopamine levels after administration | dramatically reduced time in the middle
CC(OC(=O)C(C)C)OC(=O)N1CC2CC(C1)c1cc3nccnc3cc12 (stereo not drawn) [Varenicline-Encarbil] | better efficacy when compared directly to varenicline | mimic the effects of varenicline | 
NCC(=O)N1CC2CC(C1)c1cc3nccnc3cc12 [Varenicline Glycinamide] |  | do not lead to dopamine release | not observed
